Patent US20220289794A1, “SYNTHETIC ANTIMICROBIAL PEPTIDES” (priority 2019, published 2022)
Converted amounts (≈) assume the structure as drawn. Like-named read-outs stand apart in the source and are kept apart here. Non-standard residues stand in square brackets, D forms with d. Residues, ends and D or L forms follow the SMILES beside them. Bip = N[C@@H](Cc1ccc(-c2ccccc2)cc1)C(=O)O; Dip = N[C@H](C(=O)O)C(c1ccccc1)c1ccccc1; 2Nal = N[C@@H](Cc1ccc2ccccc2c1)C(=O)O; d2Nal = N[C@H](Cc1ccc2ccccc2c1)C(=O)O; Dab = NCC[C@H](N)C(=O)O

What was measured:
human red blood cells = tested on: human red blood cells; design: unit not given beside the values
[1] = tested on: Escherichia coli (ATCC 25922)
[2] = tested on: Pseudomonas aeruginosa (ATCC 27883)
[3] = tested on: Methicillin-resistant Staphylococcus aureus MRSA (ATCC BAA-1556)

Compound	HC50 (human red blood cells)	MIC E. coli ATCC 25922 ([1]; ATCC 25922) [µg/mL]	MIC P. aeruginosa ATCC 27883 ([2]; ATCC 27883) [µg/mL]	MIC S. aureus ATCC 29213 (S. aureus ATCC 29213; ATCC 29213) [µg/mL]	MIC MRSA ATCC BAA-1556 ([3]; ATCC BAA-1556) [µg/mL]	also measured
N=C(N)NCCC[C@H](NC(=O)[C@H](Cc1ccc2ccccc2c1)NC(=O)[C@H](Cc1ccc2ccccc2c1)NC(=O)[C@H](CCCNC(=N)N)NC(=O)[C@H](CCCNC(=N)N)NC(=O)[C@H](Cc1ccc2ccccc2c1)NC(=O)[C@@H](N)CCCNC(=N)N)C(=O)O [IFX-018-1, NH2-Arg-NaI-Arg-Arg-NaI-NaI-Arg-OH] (H-R[2Nal]RR[2Nal][2Nal]R-OH)	405	25 (≈ 20.3 µM)	50 (≈ 40.5 µM)	12.5 (≈ 10.1 µM)	25 (≈ 20.3 µM)	
N=C(N)NCCC[C@@H]1NC(=O)CNC(=O)[C@H](Cc2c[nH]c3ccccc23)NC(=O)[C@H](Cc2c[nH]c3ccccc23)NC(=O)[C@H](Cc2c[nH]c3ccccc23)NC(=O)[C@H](Cc2c[nH]c3ccccc23)NC(=O)CNC(=O)[C@H](CCCNC(=N)N)NC(=O)[C@H](CCCNC(=N)N)NC(=O)[C@H](CCCNC(=N)N)NC1=O [IFX-043] (cyclo(GRRRRGWWWW))	580	25 (≈ 16.8 µM)	50 (≈ 33.7 µM)	6.2 (≈ 4.18 µM)	6.2 (≈ 4.18 µM)	
N=C(N)NCCC[C@H]1NC(=O)[C@@H](CCCNC(=N)N)NC(=O)[C@@H](CCCNC(=N)N)NC(=O)[C@@H](Cc2c[nH]c3ccccc23)NC(=O)[C@@H](Cc2c[nH]c3ccccc23)NC(=O)[C@@H](Cc2c[nH]c3ccccc23)NC(=O)[C@@H](Cc2c[nH]c3ccccc23)NC(=O)[C@@H](CCCNC(=N)N)NC(=O)[C@@H](CCCNC(=N)N)NC1=O [IFX-037, c[arg-arg-arg-arg-arg-trp-trp-trp-trp]]	670	12.5 (≈ 8.19 µM)	25 (≈ 16.4 µM)	3.1 (≈ 2.03 µM)	6.2 (≈ 4.06 µM)	
N=C(N)NCCC[C@@H]1NC(=O)[C@H](CCN)NC(=O)[C@@H](Cc2ccc3ccccc3c2)NC(=O)[C@@H](Cc2ccc3ccccc3c2)NC(=O)[C@H](Cc2c[nH]c3ccccc23)NC(=O)[C@H](CCN)NC(=O)[C@@H](CCCNC(=N)N)NC(=O)[C@H](CCCNC(=N)N)NC(=O)[C@@H](CCCNC(=N)N)NC1=O [IFX-057, c[Dab-Arg-arg-Arg-arg-Dab-Trp-naI-naI]] (cyclo([Dab]R[dR]R[dR][Dab]W[d2Nal][d2Nal]))	520	32 (≈ 22.8 µM)	32 (≈ 22.8 µM)	16 (≈ 11.4 µM)	32 (≈ 22.8 µM)	
N=C(N)NCCC[C@@H]1NC(=O)[C@H](CCCNC(=N)N)NC(=O)[C@H](Cc2c[nH]c3ccccc23)NC(=O)[C@H](Cc2ccc3ccccc3c2)NC(=O)[C@H](Cc2ccc3ccccc3c2)NC(=O)[C@H](CCCNC(=N)N)NC1=O [IFX-025, c[Arg-Arg-Arg-NaI-NaI-Trp]] (cyclo(RRR[2Nal][2Nal]W))	190					
NCCCC[C@@H]1NC(=O)[C@H](CCCCN)NC(=O)[C@H](CCCCN)NC(=O)[C@H](C(c2ccccc2)c2ccccc2)NC(=O)[C@H](C(c2ccccc2)c2ccccc2)NC(=O)[C@H](C(c2ccccc2)c2ccccc2)NC(=O)[C@H](CCCCN)NC1=O [IFX-014, c[Lys-Lys-Lys-Lys-Dip-Dip-Dip]] (cyclo([Dip][Dip][Dip]KKKK))	415	>100	>100	12.5 (≈ 10.6 µM)	12.5 (≈ 10.6 µM)	
N=C(N)NCCC[C@@H]1NC(=O)[C@@H](CCCNC(=N)N)NC(=O)[C@H](CCCNC(=N)N)NC(=O)[C@@H](Cc2c[nH]c3ccccc23)NC(=O)[C@H](Cc2c[nH]c3ccccc23)NC(=O)[C@@H](Cc2c[nH]c3ccccc23)NC(=O)[C@H](Cc2c[nH]c3ccccc23)NC(=O)[C@@H](CCCNC(=N)N)NC1=O [IFX-033, c[Arg-arg-Arg-arg-Trp-trp-Trp-trp]] (cyclo(R[dR]R[dR]W[dW]W[dW]))	95	12.5 (≈ 9.13 µM)	25 (≈ 18.3 µM)	6.2 (≈ 4.53 µM)	6.2 (≈ 4.53 µM)	
N=C(N)NCCC[C@@H]1NC(=O)[C@H](CCCNC(=N)N)NC(=O)[C@H](Cc2ccc3ccccc3c2)NC(=O)[C@H](Cc2ccc3ccccc3c2)NC(=O)[C@H](Cc2c[nH]c3ccccc23)NC(=O)[C@H](CCCNC(=N)N)NC1=O [IFX-023, c[Arg-Arg-Arg-Trp-NaI-NaI]] (cyclo(RRRW[2Nal][2Nal]))	175					
N=C(N)NCCC[C@@H]1NC(=O)[C@H](CCCNC(=N)N)NC(=O)[C@H](Cc2ccc3ccccc3c2)NC(=O)[C@H](Cc2c[nH]c3ccccc23)NC(=O)[C@H](Cc2ccc3ccccc3c2)NC(=O)[C@H](CCCNC(=N)N)NC1=O [IFX-024, c[Arg-Arg-Arg-NaI-Trp-NaI]] (cyclo(RRR[2Nal]W[2Nal]))	250					
N=C(N)NCCC[C@@H]1NC(=O)[C@H](CCCNC(=N)N)NC(=O)[C@H](CCCNC(=N)N)NC(=O)[C@H](C(c2ccccc2)c2ccccc2)NC(=O)[C@H](C(c2ccccc2)c2ccccc2)NC(=O)[C@H](Cc2c[nH]c3ccccc23)NC(=O)[C@H](CCCNC(=N)N)NC1=O [IFX-026, c[Arg-Arg-Arg-Arg-Trp-Dip-Dip]] (cyclo([Dip][Dip]RRRRW))	240					
N=C(N)NCCC[C@@H]1NC(=O)[C@H](CCCNC(=N)N)NC(=O)[C@H](Cc2c[nH]c3ccccc23)NC(=O)[C@H](C(c2ccccc2)c2ccccc2)NC(=O)[C@H](C(c2ccccc2)c2ccccc2)NC(=O)[C@H](CCCNC(=N)N)NC1=O [IFX-022, c[Arg-Arg-Arg-Dip-Dip-Trp]] (cyclo([Dip][Dip]WRRR))	215					
N=C(N)NCCC[C@@H]1NC(=O)[C@H](CCCNC(=N)N)NC(=O)[C@H](Cc2c[nH]c3ccccc23)NC(=O)[C@H](C(c2ccccc2)c2ccccc2)NC(=O)[C@H](C(c2ccccc2)c2ccccc2)NC(=O)[C@H](CCCNC(=N)N)NC(=O)[C@H](CCCNC(=N)N)NC1=O [IFX-028, c[Arg-Arg-Arg-Arg-Dip-Dip-Trp]] (cyclo([Dip][Dip]WRRRR))	370					
N=C(N)NCCC[C@@H]1NC(=O)[C@H](CCCNC(=N)N)NC(=O)[C@H](CCCNC(=N)N)NC(=O)[C@H](Cc2ccc3ccccc3c2)NC(=O)[C@H](Cc2c[nH]c3ccccc23)NC(=O)[C@H](Cc2ccc3ccccc3c2)NC(=O)[C@H](CCCNC(=N)N)NC1=O [IFX-030, c[Arg-Arg-Arg-Arg-NaI-Trp-NaI]] (cyclo(RRRR[2Nal]W[2Nal]))	430					
N=C(N)NCCC[C@@H]1NC(=O)[C@H](CCCNC(=N)N)NC(=O)[C@H](CCCNC(=N)N)NC(=O)[C@H](Cc2ccc3ccccc3c2)NC(=O)[C@H](Cc2ccc3ccccc3c2)NC(=O)[C@H](Cc2c[nH]c3ccccc23)NC(=O)[C@H](CCCNC(=N)N)NC1=O [IFX-029, c[Arg-Arg-Arg-Arg-Trp-NaI-NaI]] (cyclo(RRRRW[2Nal][2Nal]))	200					
c[PEG2-Arg-Arg-Arg-Arg-Arg-PEG2-Dip-Dip-Dip] [IFX-050-2]						MIC E. coli ATCC 25922 [1]: 64 µg/mL; MIC P. aeruginosa ATCC 27883 [2]: 128 µg/mL; MIC S. aureus ATCC 29213 (S. aureus ATCC 29213): 16 µg/mL; MIC MRSA ATCC BAA-1556 [3]: 16 µg/mL
c[Arg-Arg-Arg-Arg-1meW-1meW-1meW-1meW] [IFX-041]						MIC E. coli ATCC 25922 [1]: 25 µg/mL; MIC P. aeruginosa ATCC 27883 [2]: 25 µg/mL; MIC S. aureus ATCC 29213 (S. aureus ATCC 29213): 3.1 µg/mL; MIC MRSA ATCC BAA-1556 [3]: 6.2 µg/mL
N=C(N)NCCC[C@@H]1NC(=O)[C@H](CCCNC(=N)N)NC(=O)[C@H](CCCNC(=N)N)NC(=O)[C@H](C(c2ccccc2)c2ccccc2)NC(=O)[C@H](Cc2c[nH]c3ccccc23)NC(=O)[C@H](C(c2ccccc2)c2ccccc2)NC(=O)[C@H](CCCNC(=N)N)NC1=O [IFX-027, c[Arg-Arg-Arg-Arg-Dip-Trp-Dip]] (cyclo(RRRR[Dip]W[Dip]))	860					
c[PEG1-Arg-Arg-Arg-Arg-PEG1-Dip-Dip-Dip] [IFX-048]						MIC E. coli ATCC 25922 [1]: 64 µg/mL; MIC P. aeruginosa ATCC 27883 [2]: 64 µg/mL; MIC S. aureus ATCC 29213 (S. aureus ATCC 29213): 16 µg/mL; MIC MRSA ATCC BAA-1556 [3]: 16 µg/mL
c[PEG4-Arg-arg-Arg-arg-Trp-naI-naI] [IFX-053]						MIC E. coli ATCC 25922 [1]: 64 µg/mL; MIC P. aeruginosa ATCC 27883 [2]: 128 µg/mL; MIC S. aureus ATCC 29213 (S. aureus ATCC 29213): 16 µg/mL; MIC MRSA ATCC BAA-1556 [3]: 16 µg/mL
c[PEG2-Arg-Arg-Arg-Arg-PEG2-Trp-Trp-Trp-Trp] [IFX-047]						MIC E. coli ATCC 25922 [1]: 100 µg/mL; MIC P. aeruginosa ATCC 27883 [2]: 50 µg/mL; MIC S. aureus ATCC 29213 (S. aureus ATCC 29213): 50 µg/mL; MIC MRSA ATCC BAA-1556 [3]: 50 µg/mL
c[PEG1-Arg-Arg-Arg-Arg-PEG1-Trp-Trp-Trp-Trp] [IFX-046]						MIC E. coli ATCC 25922 [1]: 50 µg/mL; MIC P. aeruginosa ATCC 27883 [2]: 50 µg/mL; MIC S. aureus ATCC 29213 (S. aureus ATCC 29213): 25 µg/mL; MIC MRSA ATCC BAA-1556 [3]: 25 µg/mL
N=C(N)NCCC[C@H](NC(=O)[C@H](CCCNC(=N)N)NC(=O)[C@H](CCCNC(=N)N)NC(=O)[C@@H](N)CCCNC(=N)N)C(=O)N[C@@H](Cc1ccc(-c2ccccc2)cc1)C(=O)N[C@@H](Cc1ccc(-c2ccccc2)cc1)C(=O)N[C@@H](Cc1ccc(-c2ccccc2)cc1)C(=O)O [IFX-007-1, NH2-Arg-Arg-Arg-Arg-Bip-Bip-Bip-OH] (H-RRRR[Bip][Bip][Bip]-OH)		>100	25 (≈ 19 µM)	6.2 (≈ 4.72 µM)	6.2 (≈ 4.72 µM)	
